Data from US5637617A, “Methods for use of GABAa receptor GABAergic compounds” (The Regents of the University of California, priority 1994, dated 1997).

System: phosphoinositide/Ca2+ pathway
Assay: Direct membrane current responses of oocytes to fenamates
Format: cell-based, Xenopus laevis
Conditions: 10-100 μM; in some oocytes

SMILES	direct membrane current responses
Cc1ccc(Cl)c(Nc2ccccc2C(=O)O)c1Cl [Meclofenamate, Meclofenamic acid]	able to elicit membrane current responses
Cc1cccc(Nc2ccccc2C(=O)O)c1C [Mefenamic acid]	able to elicit membrane current responses
